Here are results for one compound from paper PMC8320979, “Probing the role of the residues in the active site of the transaminase from Thermobaculum terrenum” (PLoS ONE, 2021).

Holding throughout (test): pre-steady-state half-reaction of the PLP form, aldimine decrease at […] nm
Assay type in all cases: biochemical

The target in assay [1] is T1, TaTT (transaminase from Thermobaculum terrenum) (Thermobaculum terrenum, UniProt D1CCW1, G40V/Y100F).
T1 construct: gene ilvE; N-terminal His6TEV-tag, expressed in E. coli BL21(DE3)pLys; tag cut by TEV for crystals (309 visible residues, 5 N-terminal and 3 C-terminal residues invisible); functional dimer
T1 sequence (D1CCW1 entry or part of it G40V/Y100F): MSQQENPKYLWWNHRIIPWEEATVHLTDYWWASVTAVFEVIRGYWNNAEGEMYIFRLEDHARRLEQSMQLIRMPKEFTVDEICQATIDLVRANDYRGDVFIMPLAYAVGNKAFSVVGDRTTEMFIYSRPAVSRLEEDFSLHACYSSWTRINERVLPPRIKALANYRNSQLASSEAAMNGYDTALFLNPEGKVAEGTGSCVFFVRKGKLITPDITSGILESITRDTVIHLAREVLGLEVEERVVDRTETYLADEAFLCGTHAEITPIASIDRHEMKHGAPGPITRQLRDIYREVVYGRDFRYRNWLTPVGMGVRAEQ
As to conditions: mP2; 50 mM CHES pH 9.0, 40 °C; no amino acceptor; constant from kobs vs. substrate; read-out: pH 9.0, CHES buffer, 40°C / KD, / mM.

Assay [2] concerns the target T2, TaTT (transaminase from Thermobaculum terrenum) (Thermobaculum terrenum, UniProt D1CCW1, G40V/R42S/Y100F/S114R).
T2 construct: gene ilvE; N-terminal His6TEV-tag, expressed in E. coli BL21(DE3)pLys; tag cut by TEV for crystals (309 visible residues, 5 N-terminal and 3 C-terminal residues invisible); functional dimer
As to conditions: mP3O1; 50 mM CHES pH 9.0, 40 °C; no amino acceptor; constant from kobs vs. substrate; read-out: pH 9.0, CHES buffer, 40°C / KD, / mM.

The target of assay [3] is T3, TaTT (transaminase from Thermobaculum terrenum) (Thermobaculum terrenum, UniProt D1CCW1, S114R).
T3 construct: gene ilvE; N-terminal His6TEV-tag, expressed in E. coli BL21(DE3)pLys; tag cut by TEV for crystals (309 visible residues, 5 N-terminal and 3 C-terminal residues invisible); functional dimer
T3 sequence (D1CCW1 entry or part of it S114R): as the sequence (D1CCW1 entry or part of it G40V/Y100F) above, with V40G, F100Y, S114R counted along it
As to conditions: mO1; 50 mM CHES pH 9.0, 40 °C; no amino acceptor; constant from kobs vs. substrate; read-out: pH 9.0, CHES buffer, 40°C / KD, / mM.

Assay [4] has as its target T4, TaTT (transaminase from Thermobaculum terrenum) (Thermobaculum terrenum, UniProt D1CCW1).
T4 construct: gene ilvE; N-terminal His6TEV-tag, expressed in E. coli BL21(DE3)pLys; tag cut by TEV for crystals (309 visible residues, 5 N-terminal and 3 C-terminal residues invisible); functional dimer
As to conditions: 50 mM CHES pH 9.0, 40 °C; no amino acceptor; constant from kobs vs. substrate; read-out: pH 9.0, CHES buffer, 40°C / KD, / mM.

The target in assay [5] is T5, TaTT (transaminase from Thermobaculum terrenum) (Thermobaculum terrenum, UniProt D1CCW1, G40V/R42S/Y100F).
T5 construct: gene ilvE; N-terminal His6TEV-tag, expressed in E. coli BL21(DE3)pLys; tag cut by TEV for crystals (309 visible residues, 5 N-terminal and 3 C-terminal residues invisible); functional dimer
T5 sequence (D1CCW1 entry or part of it G40V/R42S/Y100F): as the sequence (D1CCW1 entry or part of it G40V/Y100F) above, with R42S counted along it
As to conditions: mP3; 50 mM CHES pH 9.0, 40 °C; no amino acceptor; constant from kobs vs. substrate; read-out: pH 9.0, CHES buffer, 40°C / KD, / mM.

The target of assay [6] is T6, TaTT (transaminase from Thermobaculum terrenum) (Thermobaculum terrenum, UniProt D1CCW1, W31H/F38Y/G40V/R42S/Y100F).
T6 construct: gene ilvE; N-terminal His6TEV-tag, expressed in E. coli BL21(DE3)pLys; tag cut by TEV for crystals (309 visible residues, 5 N-terminal and 3 C-terminal residues invisible); functional dimer
T6 sequence (D1CCW1 entry or part of it W31H/F38Y/G40V/R42S/Y100F): as the sequence (D1CCW1 entry or part of it G40V/Y100F) above, with W31H, F38Y, R42S counted along it
As to conditions: mP3O7; 50 mM Tris-HCl pH 8.0, 30 °C; no amino acceptor; constant from kobs vs. substrate; read-out: pH 8.0, Tris-HCl buffer, 30°C / KD, / mM.

T4 sequence (D1CCW1 entry or part of it): as the sequence (D1CCW1 entry or part of it G40V/Y100F) above, with V40G, F100Y counted along it
T2 sequence (D1CCW1 entry or part of it G40V/R42S/Y100F/S114R): as the sequence (D1CCW1 entry or part of it G40V/Y100F) above, with R42S, S114R counted along it

Consider `C[C@@H](N)c1ccccc1` [R-PEA, (R)-(+)-1-phenylethylamine], for which the Kd is 13 ± 2 mM in assay [1]; 1.5 ± 0.5 mM in assay [2]; 3.3 ± 1.2 mM in assay [3]; 81 ± 8 mM in assay [4]; 2.6 ± 0.4 mM in assay [5]; 44 ± 8 mM in assay [6].
